Values after ≈ are worked out from the molar mass of the structure shown. Read-outs that look alike come from different tables or passages of the source.

The values that follow come from patent publication US20210238169A1, “PROCESS FOR PREPARING A COMPOUND OF FORMULA (XIII)” (PULMOCIDE LIMITED, priority 2014, published 2021).

Data set [1] concerns Aspergillus fumigatus isolates. The data set is described as follows: Broth microdilution assay of planktonic fungal growth (modified EUCAST). Type of data set: cell-based. Conditions: read-out: MIC75. On the procedure:
This assay was conducted using a modified method published by EUCAST (Rodriguez-Tudela et al., 2008). Spores of Aspergillus fumigatus (NCPF2010, NCPF7010 (Methionine 220 mutation), NCPF7099 (Glycine G54 mutation) from Public Health England, Wiltshire; TR34/L98H mutants from St Louis Hospital, Paris, France) were cultured in Sabouraud dextrose agar for 3 days. A stock spore suspension was prepared from a Sabouraud dextrose agar culture by washing with PBS-tween (10 mL; PBS containing 0.05% Tween-20, 100 U/mL Penicillin and 100 U/mL Streptomycin). The spore count was assessed using a Neubauer haemocytometer and then adjusted to 10^6 spores/mL with PBS. A working suspension of spores (2×10^5 spores/mL) was prepared in filter sterilised, BSA MOPS RPMI-1640 (50 mL; RPMI-1640 containing 2 mM L-glutamine, 0.5% BSA, 2% glucose, 0.165 M MOPS, buffered to pH 7 with NaOH). For the assay, BSA MOPS RPMI-1640 (50 μL/well) was added throughout the 384-well plate (Catalogue number 353962, BD Falcon, Oxford, UK) first. Test compounds (0.5 μL DMSO solution) were then added in quadruplicate using an Integra VIAFLO 96 (Integra, Zizers, Switzerland), and mixed well using a plate mixer. Subsequently 50 μL of the working spore suspension prepared above was added to all wells except non-spore control wells. For non-spore control wells, BSA MOPS-RPMI solution (50 μL/well) was added instead. The plate was covered with a plastic lid, and incubated (35° C. with ambient air) for 48 hr. The OD of each well at 530 nm was determined using a multi-scanner (Clariostar: BMG, Buckinghamshire, UK). The percentage inhibition for each well was calculated and the MIC50, MIC75 and MIC90 values were calculated from the concentration-response curve generated for each test compound.
(Dilution methods test growth across graded concentrations, often in twofold steps.)

The next data set deals with BEAS2B cells. The data set is described as follows: Cell viability: resazurin assay. Type of data set: cell-based, human. The conditions noted are these: n = 1-5. On the procedure:
(§1) BEAS2B cells were seeded in 384-well plates (100 μL; 3000/well/; BD Falcon, Catalogue No 353962) in RPMI-LHC8 (RPMI-1640 and LHC8 media combined in equal proportions) one day before experimentation. For cell-free control wells, RPMI-LHC8 (100 μL) was added. Test compounds (0.5 μL of a DMSO solution) were added to give a final DMSO concentration of 0.5% using an Integra VIAFLO 96 (Integra, Zizers, Switzerland). BEAS2B cells were incubated with each test compound for 1 day (37° C./5% CO2 in RPMI-LHC8). After addition of resazurin stock solution (5 μL, 0.04%) the plates were incubated for a further 4 hr (37° C./5% CO2). The fluorescence of each well at 545 nm (excitation) and 590 nm (emission) was determined using a multi-scanner (Clariostar: BMG Labtech). The percentage loss of cell viability was calculated for each well relative to vehicle (0.5% DMSO) treatment. Where appropriate, a CC50 value was calculated from the concentration-response curve generated from the concentration-response curve for each test compound.

Data set [2] has as its system Aspergillus fumigatus isolates. As to the kind of experiment: Broth microdilution assay of planktonic fungal growth (modified EUCAST). Type of data set: cell-based. The conditions noted are these: isolate NCPF7100, broth microdilution, read-out: MIC75.
Data set [3] relates to Aspergillus fumigatus (NCPF2010). As to the kind of experiment: Resazurin-microtitre assay of planktonic fungal growth. Format: cell-based. The procedure: This assay was conducted using a modified, published method (Monteiro et al., 2012). Spores of Aspergillus fumigatus (NCPF2010, Public Health England, Wiltshire) were cultured in Sabouraud dextrose agar for 3 days. A stock spore suspension was prepared from a Sabouraud dextrose agar culture by washing with PBS-tween (10 mL; PBS containing 0.05% Tween-20, 100 U/mL Penicillin and 100 U/mL Streptomycin). The spore count was assessed using a Neubauer haemocytometer and, using PBS, adjusted to 10^6 spores/mL. A working suspension of spores (10^4 spores/mL) was prepared in filter sterilised MOPS RPMI-1640 (50 mL; RPMI-1640 containing 2 mM L-glutamine, 2% glucose and 0.165 M MOPS, buffered to pH 7 with NaOH). Resazurin sodium salt (100 μL of 1% solution; Sigma-Aldrich, Dorset, UK) was added to the spore suspension and mixed well. The spore suspension-resazurin mixture (100 μL/well) was added to 384-well plates (Catalogue number 353962, BD Falcon, Oxford, UK). Simultaneously, test compounds (0.5 μL DMSO solution) were added to 100 μL of the spore-resazurin mixture in quadruplicate to provide a final DMSO solution of 0.5% using an Integra VIAFLO 96 (Intergra, Zizers, Switzerland). For non-spore control wells, MOPS-RPMI-resazurin solution (100 μL) was added instead of the spore-resazurin mixture. The plate was covered with a Breathe Easier membrane (Catalogue No Z763624, Sigma-Aldrich, Dorset, UK), and incubated (35° C., 5% CO2) until fluorescence in the inoculated wells was double that of the control wells (around 24 hr). The fluorescence of each well (545 nm (excitation)/590 nm (emission), gain 800, focal height 5.5 mm) was determined using a multi-scanner (Clariostar: BMG, Buckinghamshire, UK). The percentage inhibition for each well was calculated and the MIC50, MIC75 and MIC90 values were calculated from the concentration-response curve generated for each test compound.
In general terms: Resazurin is reduced to fluorescent resorufin, in cell work by metabolically active cells.

A short description of data set [4]: Cell viability: resazurin assay. Type of data set: cell-based, human. The conditions noted are these: human, BEAS2B cells; n = 1-5. The procedure: as §1
A further data set concerns Aspergillus fumigatus. As to the kind of experiment: Aspergillus fumigatus infection of BEAS2B bronchial epithelial cells (GM in supernatant). Format: cell-based. On the procedure: BEAS2B cells were seeded in 96-well plates (100 μL; 30,000 cells/well; Catalogue No 3596, Sigma Aldrich, Dorset, UK) in 10% FBS RPMI-1640 and were then incubated (37° C., 5% CO2) for one day before experimentation. Test compounds (0.5 μL DMSO solution) or vehicle (DMSO) were added to each well to give a final DMSO concentration of 0.5%. BEAS2B cells were incubated with test compounds for 1 hr (35° C., 5% CO2) before infection with Aspergillus fumigatus (20 μL; Public Health England) conidia suspension (0.5×10^5/ml in 10% FBS RPMI-1640). The plate was incubated for 24 hr (35° C., 5% CO2). Supernatant (50 μL) was collected and transferred to a PCR plate (Catalogue No L1402-9700, Starlab, Milton Keynes, UK), which was frozen (−20° C.) until use. After thawing, supernatant (5 μL) was diluted 1:20 by adding R7-PBS solution (95 μL; 1:4 R7 to PBS; Bio-Rad Laboratories, Redmond, Wash., USA). GM levels in these samples (50 μL) were measured using Platelia GM-EIA kits (Bio-Rad Laboratories, Redmond, Wash., USA). The percentage inhibition for each well was calculated and the IC50 value was calculated from the concentration-response curve generated for each test compound.

In the case of `C[C@@H]1[C@H](O)[C@@H](C)/C=C/C=C/C=C/C=C/C=C/C=C/C=C/[C@H](O[C@@H]2O[C@H](C)[C@@H](O)[C@H](N)[C@@H]2O)C[C@@H]2O[C@](O)(C[C@@H](O)C[C@@H](O)[C@H](O)CC[C@@H](O)C[C@@H](O)CC(=O)O[C@H]1C)C[C@H](O)[C@H]2C(=O)O` [Amphotericin B], the MIC is 0.209 µM (≈ 0.193 µg/mL) in data set [1] (isolate L98H, broth microdilution); 0.382 µM (≈ 0.353 µg/mL) in data set [1] (isolate NCPF2010, broth microdilution); 0.365 µM (≈ 0.337 µg/mL) in data set [1] (isolate NCPF7099, broth microdilution); greater than 1.08 µM in data set [2]. Besides, the CC50 in the data set on BEAS2B cells turned out to be 977 nM. In data set [3], the “Planktonic fungal growth MIC50” value came out at 0.0285 µM. The “Planktonic fungal growth MIC75” value in data set [3] is 0.0644 µM.
Consider `[2H]c1c([2H])c(NC(=O)c2ccc(N3CCN(c4ccc(OC[C@@H]5CO[C@@](Cn6cncn6)(c6ccc(F)cc6F)C5)c(C)c4)CC3)cc2)c([2H])c([2H])c1F` [Compound (I)•4[^2H], 4-(4-(4-(((3R,5R)-5-((1H-1,2,4-triazol-1-yl)methyl)-5-(2,4-difluorophenyl)tetrahydrofuran-3-yl)methoxy)-3-methylphenyl)piperazin-1-yl)-N-(4-fluorophenyl-2,3,5,6-d4)benzamide], for which the MIC in data set [1] (Aspergillus fumigatus) was 0.07 µM (≈ 0.0481 µg/mL); in data set [1] (Aspergillus fumigatus, isolate NCPF2010, broth microdilution), 0.0147 µM (≈ 0.0101 µg/mL); in data set [1] (Aspergillus fumigatus, isolate NCPF7099, broth microdilution) it was 0.0137 µM (≈ 0.00941 µg/mL); in data set [2] (Aspergillus fumigatus), 0.0286 µM (≈ 0.0196 µg/mL). This compound showed a CC50 at 1 day in data set [4] greater than 14600 nM. Besides, the MIC50 in the data set on Aspergillus fumigatus was found to be 0.00315 µM (≈ 0.00216 µg/mL).

In general, CC50 refers to the concentration that lowers cell viability or growth by half. A lower CC50 goes with greater toxicity to the cells. Broadly, the MIC50 is an inhibitory concentration at the 50% level, which refers to growth in some studies and to a panel of isolates in others.
